# Measurements published in patent publication US5654321A, “2-chloro-3-arylamino-1,4-naphthoquinone derivatives, process for preparation thereof and use thereof as an agent for inhibiting platelet aggregation” (Dong Kook Pharmaceutical Co. Ltd., priority 1996, dated 1997).
# Entries after “also recorded” stand apart in the source; their conditions may differ. Where two headings read alike, the source gives them in different places.
# Experiments:
# human platelet = conditions: Blackwell et al., Thromb. Res. 37, 103-114, 1985; cited from earlier work
# washed platelet [1] = assay: Excretion of lactic acid dehydrogenase (LDH) from platelets, cytotoxicity; type: cell-based, rat; conditions: for Concentration of LDH: NQ-Y15 0.1 mM, Triton X-100 0.1%
# From the text: Lactic acid dehydrogenase (LDH) is an enzyme present in cytoplasm of platelets and is excreted from platelet cytoplasm into extracellular fluid when platelet membrane is injured or cytotoxicity such as cytolysis is induced. Accordingly, it was intended to identify whether the compound of the present invention induces the cytotoxicity by quantitatively measuring lactic acid dehydrogenase excreted after the pre-treatment with the compound of the present invention.
# To the washed platelet, dimethylsulfoxide(DMSO) (control group) which can dissolve the compound, NQ-Y15, of the present invention, NQ-Y15 or Triton X-100 (0.1%) which can disrupt the cellular membrane was added. Then, this mixture was centrifuged under 12,000×g at room temperature for 2 minutes to separate the supernatant. To the separated supernatant was added a reagent for measuring lactic acid dehydrogenase LD-L10^R (Sigma) and then the excreted lactic acid dehydrogenase was quantitatively analyzed by means of an automated clinical chemistry analyzer SBA300 (Gilford) which can automatically quantitate lactic acid dehydrogenase.
# rabbit platelet = conditions: Ko et al., Thromb. Res. 57, 453-463, 1990; cited from earlier work
# washed platelet [2] = assay: Inhibition of platelet aggregation induced by platelet agonists (aggregometer, light transmission, method of Born); type: cell-based, rat; conditions: for IC50: washed platelet, 37° C., read-out: concentration by which the platelet aggregation induced by agonists is reduced by 50%
# Experimental: Blood was taken from abdominal aorta of rat using a syringe in which sodium citrate (final content 0.38%) was previously filled, and centrifuged under 160×g at room temperature for 15 minutes to obtain the platelet rich plasma as the supernatant. This platelet rich plasma was centrifuged again under 1500×g for 15 minutes to obtain the precipitate which was then washed three times with a washing buffer solution (129 mM sodium chloride, 0.8 mM dipotassium hydrogenphosphate, 8.9 mM sodium carbonate, 2.8 mM potassium chloride, 0.8 mM magnesium chloride, 5.6 mM glucose, 10 mM N-[2-hydroxyethyl]-piperazine-N'-[2-ethanesulfonic acid], acidity pH 7.4) containing 2 mM ethylenediamine tetraacetic acid to remove protein and calcium from the plasma. This […] was then carefully re-suspended in a modified Tyrode's buffer solution (129 mM sodium chloride, 0.8 mM dipotassium hydrogenphosphate, 8.9 mM sodium carbonate, 2.8 mM potassium chloride, 0.8 mM magnesium chloride, 5.6 mM glucose, 10 mM N-[2-hydroxyethyl]piperazine-N-'-[2-ethanesulfonic acid], acidity pH 7.4) containing 0.35% bovine serum albumin to obtain the washed platelet.
# In this experiment, the platelet aggregation ability was determined by measuring a change in light transmission depending on turbidity change by means of an apparatus for measuring platelet aggregation ability (Chronolog Co.: Pennsylvania, Harvertown) according to a method of Born (see, Born, G. V. R., Nature, 194, 927, 1962). As the control, the light transmission degree for the plasma having substantially no platelet was used. 495 μl of the platelet rich plasma prepared in the above (1) was added to a cuvette for aggregometer, which has a silicon-treated surface. This cuvette was pre-treated by inserting it into a cuvette channel which is maintained at 37° C. and retaining for 30 seconds. Then, 2.5 μl of the compound according to the present invention, NQ-Y15 (final concentration 10^-4 M), dissolved in dimethylsulfoxide was added to the cuvette. The reaction was conducted again at 37° C. for 8 minutes. Then, the change in light transmission developed by adding 2.5 μl of thrombin (final concentration 0.5U/ml) thereto was measured for 10 minutes.
# In addition, 495 μl of the washed platelet prepared in the above (1) was pre-treated for 30 seconds at 37° C. according to the same procedure as above and then 2.5 μl of the compound according to the present invention, NQ-Y15, dissolved in dimethylsulfoxide was added thereto. This mixture was allowed to react for 8 minutes at 37° C. Then, 2.5 μl of the platelet agonist (thrombin 0.1U/ml, collagen 10 μg/ml or calcium ionophore A23187 having the following formula 2 μM) was added to the reaction mixture to induce the platelet aggregation and then the change in light transmission was measured for 10 minutes. In this experiment, the light transmission degree for Tyrode's buffer solution was used as the control. [drawing 7]
# The result was determined by calculating the relative ratio of the light transmission degree obtained in each case to the light transmission degree obtained from treatment only with platelet agonists, which is regarded as 100% aggregation.
# [3] = test system: [14C]-serotonin-loaded platelet (washed platelet); assay: Inhibition of 5-[14C]-serotonin secretion from agonist-activated platelets; type: cell-based, rat
# From the text: Contrary to other cells, platelets contain numerous granules such as dense granule, α-granule, lysosome and peroxisome, each of which preserves very useful physiological substances. When platelet is activated by any stimulus, substances contained in granules are secreted out of the cells through exocytosis. Particularly, dense granule contains adenine nucleotides such as adenosine diphosphate (ADP), adenosine triphosphate (ATP), etc, calcium, serotonin, etc., which are secreted upon aggregation of platelets and then cause irreversible secondary aggregation. Thus, it can be said that irreversible secondary aggregation induced by ADP, thrombin, etc. is the result of such granule secretion. […]
# The inhibitory activity of the compound of the present invention against serotonin secretion was determined using [^14 C]-serotonin-loaded platelet according to the method of Huzoor, et. al. (see, Huzoor-Akbar, Patel, S., Kokrady, S., Witiak, D. T., Newman, H. A. I. and Feller, D. R., Biochem. Pharmacol. 30, 2013-2020, 1981). […] This mixture was then centrifuged under 12,000×g at room temperature for 2 minutes to separate the supernatant from which the radioactivity of 5-[^14 C]-serotonin was measured.
# [4] = test system: washed platelet (thromboxane B2 synthesis); assay: Inhibition of thromboxane A2 production (thromboxane B2 by radioimmunoassay) in collagen-activated platelets; type: cell-based, rat; conditions: for Thromboxane B2: DMSO + collagen 98.44 ± 11.52, DMSO + saline 0.82 ± 0.22
# Experimental: The ability of producing thromboxane A2 was determined as follow according to the method described in literature [see, Ko, F. N., Sheu, S. J., Liu, Y. M., Huang, T. F., and Teng, C. M., Inhibition of rabbit platelet aggregation by 1,4-naphthoquinones, Thromb. Res. 57, 453-463, 1990]. The experiment was conducted in a plastic cuvette containing 0.5 ml of the washed platelet (3×10^8 platelet/ml) while maintaining the temperature at 37° C. First, the washed platelet was pre-treated with the compound of the present invention, NQ-Y15, for 8 minutes and then collagen was added thereto. After incubation for 5 minutes, the reaction was allowed to stop by adding 2 mM ethylenediamine tetraacetic acid and 50 μM indomethacin. This mixture was centrifuged under 12,000×g at room temperature for 2 minutes to separate the supernatant which was then stored at -20° C. Since thromboxane A2 has a unstable structure and therefore, is immediately converted into a stable thromboxane B2, the production of thromboxane B2 as an index for the thromboxane A2 production was measured by radioimmunoassay.
molecule,measurement,setting,value
"CC1=CC(=O)c2ccccc2C1=O [vitamin K3, menadione]",inhibition of platelet aggregation in human being (in words),human platelet,has an effect on inhibition of platelet aggregation in human being
Triton X-100 [reference compound],Concentration of LDH,"washed platelet [1]; 0 min, DMSO 6.13 ± 1.13",426.40 ± 9.64 U/L
same,Concentration of LDH,"washed platelet [1]; 10 min, DMSO 5.73 ± 2.54",443.07 ± 1.27 U/L
same,Concentration of LDH,"washed platelet [1]; 20 min, DMSO 8.25 ± 1.85",444.93 ± 4.97 U/L
same,Concentration of LDH,"washed platelet [1]; 40 min, DMSO 9.77 ± 1.37",442.20 ± 0.87 U/L
same,Concentration of LDH,"washed platelet [1]; 80 min, DMSO 12.20 ± 1.74",443.73 ± 0.37 U/L
same,Concentration of LDH,"washed platelet [1]; 120 min, DMSO 14.83 ± 1.39",443.30 ± 2.53 U/L
"CC1=C(Cl)C(=O)c2ccccc2C1=O [2-chloro-3-methyl-1,4-naphthoquinone]",inhibition of platelet aggregation in rabbit (in words),rabbit platelet,inhibits the platelet aggregation in rabbit
"N#Cc1ccc(NC2=C(Cl)C(=O)c3ccccc3C2=O)cc1 [NQ-Y15, 2-chloro-3-[(4-cyanophenyl)-amino]-1,4-naphthoquinone]",IC50,"washed platelet [2]; Rattus norvegicus, Platelet, A23187 2 μM, 8 min pre-treatment (FIG. 3)",~100 µM
same,IC50,"washed platelet [2]; Rattus norvegicus, Platelet, collagen 10 μg/ml, 8 min pre-treatment (FIG. 2)",~7 µM
same,IC50,"washed platelet [2]; Rattus norvegicus, Platelet, thrombin 0.1U/ml, 8 min pre-treatment (FIG. 1)",~38 µM
same,IC100,"washed platelet [2]; Rattus norvegicus, Platelet, agonist not stated, read-out: concentration to completely inhibit the platelet aggregation",100 µM
same,inhibition of platelet aggregation induced by platelet agonists (in words),"washed platelet [2]; thrombin, collagen and A23187, FIGS. 1 to 3",inhibits the platelet aggregation induced by platelet agonists dependent upon its concentration
same,inhibition of serotonin secretion increased by collagen (in words),"[3]; collagen, within concentration range inhibiting platelet aggregation (FIG. 5)",inhibits the serotonin secretion
same,inhibition of serotonin secretion increased by thrombin (in words),"[3]; thrombin, within concentration range inhibiting platelet aggregation (FIG. 4)",inhibits the serotonin secretion increased by thrombin
same,Thromboxane B2,[4]; NQ-Y15 10 μM + collagen,78.33 ± 11.85 ng/mL
same,Thromboxane B2,[4]; NQ-Y15 30 μM + collagen,15.30 ± 2.84 ng/mL
same,Thromboxane B2,[4]; NQ-Y15 50 μM + collagen,8.50 ± 1.81 ng/mL
same,inhibition at 30 µM,"[4]; Rattus norvegicus, Platelet, 30 μM, read-out: inhibitory effect on the increase in thromboxane A2 production induced by collagen",15.5%
same,inhibition at 50 µM,"[4]; Rattus norvegicus, Platelet, 50 μM, read-out: inhibitory effect on the increase in thromboxane A2 production induced by collagen",86.3%
same,Concentration of LDH,"washed platelet [1]; 0 min, DMSO 6.13 ± 1.13",2.87 ± 0.12 U/L
same,LDH excretion versus control group / cytotoxicity (in words),"washed platelet [1]; 0.1 mM, pre-treated for 120 minutes",does not show any significant difference from the control group; also recorded: does not cause a cytotoxicity even at high concentration
same,Concentration of LDH,"washed platelet [1]; 10 min, DMSO 5.73 ± 2.54",4.57 ± 1.05 U/L
same,Concentration of LDH,"washed platelet [1]; 20 min, DMSO 8.25 ± 1.85",5.47 ± 0.52 U/L
same,Concentration of LDH,"washed platelet [1]; 40 min, DMSO 9.77 ± 1.37",8.47 ± 0.43 U/L
same,Concentration of LDH,"washed platelet [1]; 80 min, DMSO 12.20 ± 1.74",11.55 ± 0.05 U/L
same,Concentration of LDH,"washed platelet [1]; 120 min, DMSO 14.83 ± 1.39",16.67 ± 1.24 U/L
